Broadly, the DC50 is the midpoint of the concentration-degradation curve.

The target in the test is T1, ERα protein (HiBiT-tagged) in ESR1_HiBiT KI MCF7 cells (Homo sapiens, UniProt P03372).
T1 sequence (P03372 1-595): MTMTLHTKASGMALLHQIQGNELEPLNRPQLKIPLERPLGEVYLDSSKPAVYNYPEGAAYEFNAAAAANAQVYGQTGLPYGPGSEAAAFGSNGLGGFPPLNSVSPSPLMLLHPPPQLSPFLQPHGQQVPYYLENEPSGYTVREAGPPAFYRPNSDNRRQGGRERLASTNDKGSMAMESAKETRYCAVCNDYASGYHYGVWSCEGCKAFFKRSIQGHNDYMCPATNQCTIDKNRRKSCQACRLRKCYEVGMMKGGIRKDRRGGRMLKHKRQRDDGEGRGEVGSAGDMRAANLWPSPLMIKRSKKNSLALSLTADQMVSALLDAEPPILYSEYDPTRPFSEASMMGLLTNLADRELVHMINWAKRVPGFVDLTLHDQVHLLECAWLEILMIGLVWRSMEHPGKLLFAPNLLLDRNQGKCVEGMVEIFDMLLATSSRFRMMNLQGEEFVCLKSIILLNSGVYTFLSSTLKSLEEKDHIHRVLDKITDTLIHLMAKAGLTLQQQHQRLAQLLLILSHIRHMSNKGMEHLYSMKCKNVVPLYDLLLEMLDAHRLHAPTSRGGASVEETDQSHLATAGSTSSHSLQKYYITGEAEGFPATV
The experiment in a line: Nano Glo HiBiT Lytic Degradation Assay. It is filed as cell-based. To be noted: 6 hours with compound, 14-point dose response 1:3, bell-shape curve fit, half-maximal effect of first Hill model, read-out: MCF7 ESR1 HiBiT - (DC50). Here is the method:
Selected compounds of the present disclosure were tested in a Nano Glo HiBiT Lytic Degradation Assay to measure the level of ERα protein degradation in MCF7 cells.
Cell culture: ESR1_HiBiT KI MCF7 cells were maintained in growth media without antibiotics. Cells were maintained in exponential growth phase, between 40% and 90% confluency.
Cell seeding: Cells were counted using a Vi-Cell and seeded in a 384-well flat-bottom microplate (cell culture-treated) at 4000 cells/well in 25 μL of growth medium using a BioTek MultiFlo Multimode Dispenser. Plates were incubated for 24 h at 37° C., 5% CO2, >95% relative humidity.
Compound preparation: Compounds were screened as 14-point dose response curves 1:3 dilutions. DMSO is used as the vehicle control and all wells were normalized to the same final DMSO concentration (0.1% v/v). Compounds were dosed using an Echo Acoustic Liquid Handler, 25 nL of 1000× (10 mM top concentration) DMSO stock/well. Cells were incubated with compounds for 6 hours at 37° C., 5% CO2, >95% relative humidity. Each compound was run in duplicate.
Nano Glo HiBiT Lytic Degradation Assay: HiBiT-tagged ERα protein levels were quantified using a Nano Glo HiBiT Lytic Degradation Assay following the manufacturer's protocol. Briefly, the Nano-Glo® HiBiT Lytic Reagent was prepared by diluting the LgBiT Protein reagent (1:100) and the Nano-Glo® HiBiT Lytic Substrate (1:50) into Nano-Glo® HiBiT Lytic Buffer at room temperature. The 384-well microplate were equilibrated to room temperature and 25 μL of Nano-Glo® HiBiT Lytic Reagent was added to each well. Samples were mixed by placing the 384-well microplate on an orbital shaker for 10 minutes. Luminescence was measured using an EnVision 2105 Multimode Plate Reader.
Data processing and analysis: Background signal (wells containing growth medium without cells) was subtracted from individual relative light units (RLU) values and the resulting values were normalized to the DMSO control well values. Dose responses were analyzed with Genedata Screener® using a bell-shape curve fit and the concentrations corresponding to the half-maximal effect of the first Hill model were used as DC50 values.
With `O=C1CC[C@H](N2Cc3cc(N4CCN(CC5CCN(c6ccc([C@H]7c8ccc(O)cc8CC[C@H]7c7ccccc7)cc6F)CC5)CC4)ccc3C2=O)C(=O)N1` [II-81], the DC50 is at least 10000 nM. Regarding `O=C1CC[C@H](N2Cc3cc(N4CCN(CC5CCN(c6ccc([C@@H]7c8ccc(O)cc8CO[C@@H]7c7cccc(OC(F)(F)F)c7)cc6)CC5)CC4)ccc3C2=O)C(=O)N1` [Compound I-362, (S)-3-(5-(4-((1-(4-((3S,4R)-7-hydroxy-3-(3-(trifluoromethoxy)phenyl)isochroman-4-yl)phenyl)piperidin-4-yl)methyl)piperazin-1-yl)-1-oxoisoindolin-2-yl)piperidine-2,6-dione], the DC50 is 1 nM. The value for `O=C1CCC(n2cc3cc(N4CCN(CC5CCN(c6ccc([C@@H]7c8ccc(O)cc8CC[C@@H]7c7ccccc7)cc6)CC5)CC4)ccc3n2)C(=O)N1` (some centres unmarked) [Compound I-301] was 1 nM; that for `C[C@]1(C2CCCCC2)OCc2cc(O)ccc2[C@H]1c1ccc(N2CCC(CN3CCN(c4ccc5c(c4)CN([C@H]4CCC(=O)NC4=O)C5=O)CC3)CC2)cc1` (single isomer, unassigned) [Compound I-418] was 0.33 nM; that for `O=C1CC[C@H](N2Cc3cc(N4CCN(CC5CCN(c6ccc([C@@H]7c8ccc(O)cc8CO[C@@H]7c7ccc8c(c7)CC8)cc6)CC5)CC4)ccc3C2=O)C(=O)N1` (single isomer, unassigned) [Compound I-363] was 0.17 nM. With `O=C1CC[C@H](N2Cc3cc(N4CCN(CC5CCN(c6ccc([C@@H]7c8ccc(O)cc8C(F)(F)C[C@@H]7C7CCCCC7)cc6)CC5)CC4)ccc3C2=O)C(=O)N1` [Compound I-99, (S)-3-(5-(4-((1-(4-((1R,2R)-2-cyclohexyl-4,4-difluoro-6-hydroxy-1,2,3,4-tetrahydronaphthalen-1-yl)phenyl)piperidin-4-yl)methyl)piperazin-1-yl)-1-oxoisoindolin-2-yl)piperidine-2,6-dione], the DC50 is 0.67 nM.

As to `O=C1CCC(N2Cc3cc([C@@H]4CCN(CC5CCN(c6ccc([C@@H]7c8ccc(O)cc8CC[C@@H]7c7ccccc7)cc6)CC5)CC4(F)F)ccc3C2=O)C(=O)N1` (single isomer, unassigned) [II-91], the DC50 is 20 nM. Next, `O=C1CC[C@H](N2Cc3cc(N4CCN(CC5CCN(c6ccc([C@H]7c8ccc(O)cc8CO[C@H]7c7ccc(F)cc7)cc6)CC5)CC4)ccc3C2=O)C(=O)N1` [Compound I-346, (S)-3-(5-(4-((1-(4-((3R,4S)-3-(4-fluorophenyl)-7-hydroxyisochroman-4-yl)phenyl)piperidin-4-yl)methyl)piperazin-1-yl)-1-oxoisoindolin-2-yl)piperidine-2,6-dione]: at least 10000 nM; `O=C1CC[C@H](N2Cc3cc(N4CCN(CC5CCN(c6cc(F)c([C@@H]7c8ccc(O)cc8CC[C@@H]7c7ccccc7)c(F)c6)CC5)CC4)ccc3C2=O)C(=O)N1` [II-102]: 0.15 nM. Regarding `O=C1CCC(n2ncc3cc(N4CCN(CC5CCN(c6ccc([C@@H]7c8ccc(O)cc8CO[C@@H]7c7ccccc7)cc6)CC5)CC4)ccc32)C(=O)N1` (stereo partly drawn) [Compound I-398, 3-(5-(4-((1-(4-((3S,4R)-7-hydroxy-3-phenylisochroman-4-yl)phenyl)piperidin-4-yl)methyl)piperazin-1-yl)-1H-indazol-1-yl)piperidine-2,6-dione], the DC50 is 0.83 nM. As for `O=C1CC[C@H](N2Cc3cc(N4CCN(CC5CCN(c6ccc([C@@H]7c8ccc(O)cc8CC[C@@H]7c7ccc(C(F)(F)F)cc7)cc6)CC5)CC4)ccc3C2=O)C(=O)N1` (single isomer, unassigned) [II-40], the DC50 was at least 10000 nM.

As to `O=C1CC[C@H](N2Cc3cc(N4CCN(CC5CCN(c6ccc([C@@H]7c8ccc(C(=O)O)cc8CC[C@@H]7c7ccccc7)cc6)CC5)CC4)ccc3C2=O)C(=O)N1` (single isomer, unassigned) [Compound I-2], the DC50 was at least 10000 nM. With `O=C1CC[C@H](N2Cc3cc(N4CCN(CCCCCOc5ccc([C@@H]6c7ccc(O)cc7CC[C@@H]6c6ccccc6)cc5)CC4)ccc3C2=O)C(=O)N1` [II-66], the DC50 was determined as 0.33 nM. Take `Cc1ccc([C@H]2CCc3cc(O)ccc3[C@H]2c2ccc(N3CCC(CN4CCN(c5ccc6c(c5)CN([C@H]5CCC(=O)NC5=O)C6=O)CC4)CC3)cc2)cc1` (single isomer, unassigned) [II-36]: the DC50 is 0.93 nM.

On to `Cc1ccccc1[C@@H]1CCc2cc(O)ccc2[C@@H]1c1ccc(N2CCC(CN3CCN(c4ccc5c(c4)CN([C@H]4CCC(=O)NC4=O)C5=O)CC3)CC2)cc1` (single isomer, unassigned) [II-35], for which the half-maximal degradation concentration (DC50) came to 0.34 nM. The value for `COc1cccc([C@@H]2OCc3cc(O)ccc3[C@@H]2c2ccc(N3CCC(CN4CCN(c5ccc6c(c5)CN([C@H]5CCC(=O)NC5=O)C6=O)CC4)CC3)cc2)c1` [Compound I-374, (S)-3-(5-(4-((1-(4-((3R,4S)-7-hydroxy-3-(3-methoxyphenyl)isochroman-4-yl)phenyl)piperidin-4-yl)methyl)piperazin-1-yl)-1-oxoisoindolin-2-yl)piperidine-2,6-dione] was 8 nM.

As to `O=C1CCC(N2Cc3cc(N4CCN(CC5CCN(c6ccc([C@@H]7c8ccc(O)cc8C(F)(F)C[C@@H]7c7ccc(F)cc7)cc6)CC5)CC4)ccc3C2=O)C(=O)N1` (stereo partly drawn) [Compound I-309, 3-(5-(4-((1-(4-((1R,2S)-4,4-difluoro-2-(4-fluorophenyl)-6-hydroxy-1,2,3,4-tetrahydronaphthalen-1-yl)phenyl)piperidin-4-yl)methyl)piperazin-1-yl)-1-oxoisoindolin-2-yl)piperidine-2,6-dione], the DC50 was determined as 0.39 nM. Next, `O=C1CC[C@H](N2Cc3cc(N4CCN(CC5CCN(c6ccc([C@H]7c8ccc(O)cc8CC[C@H]7C7CCCCC7)cc6F)CC5)CC4)ccc3C2=O)C(=O)N1` [Compound I-236, (S)-3-(5-(4-((1-(4-((1S,2S)-2-cyclohexyl-6-hydroxy-1,2,3,4-tetrahydronaphthalen-1-yl)-2-fluorophenyl)piperidin-4-yl)methyl)piperazin-1-yl)-1-oxoisoindolin-2-yl)piperidine-2,6-dione]: 72 nM; `Cc1ccc([C@H]2OCc3cc(O)ccc3[C@H]2c2ccc(N3CCC(CN4CCN(c5ccc6c(c5)CN([C@H]5CCC(=O)NC5=O)C6=O)CC4)CC3)cc2)cc1F` (single isomer, unassigned) [Compound I-355]: 0.27 nM; `O=C1CC[C@H](N2Cc3cc(N4CCN(CC5CCN(c6ccc([C@H]7c8ccc(O)cc8CC[C@H]7c7ccc(F)cc7)cc6)CC5)CC4)ccc3C2=O)C(=O)N1` [II-101]: at least 10000 nM. For `C[C@@]1(C2CCCCC2)OCc2cc(O)ccc2[C@@H]1c1ccc(N2CCC(CN3CCN(c4ccc5c(c4)CN([C@H]4CCC(=O)NC4=O)C5=O)CC3)CC2)cc1` (single isomer, unassigned) [Compound I-256], the DC50 stood at 18 nM. Regarding `Cn1nc([C@@H]2CCC(=O)NC2=O)c2ccc(N3CCN(CC4CCN(c5ccc([C@@H]6c7ccc(O)cc7CC[C@@H]6c6ccccc6)cc5)CC4)CC3)cc21` (single isomer, unassigned) [Compound I-296], the 50% degradation concentration (DC50) was determined as 1 nM. Take `C[C@]1(c2ccccc2)CCc2cc(O)ccc2[C@@H]1c1ccc(N2CCC(CN3CCN(c4ccc5c(c4)CN([C@H]4CCC(=O)NC4=O)C5=O)CC3)CC2)cc1` [Compound I-344, (S)-3-(5-(4-((1-(4-((1R,2S)-6-hydroxy-2-methyl-2-phenyl-1,2,3,4-tetrahydronaphthalen-1-yl)phenyl)piperidin-4-yl)methyl)piperazin-1-yl)-1-oxoisoindolin-2-yl)piperidine-2,6-dione]: the half-maximal degradation concentration (DC50) worked out at 84 nM.

Source of the values: US20250388565A1, “ESTROGEN RECEPTOR ALPHA DEGRADERS AND METHODS OF USE THEREOF” (Relay Therapeutics, Inc., priority 2022, published 2025).
